The record followed here is patent publication US8796279B2, “4′-demethylepipodophyllotoxin derivative, preparation method and use thereof” (Hubei University of Technology, priority 2010, dated 2014).

Like-named read-outs stand apart in the source and are kept apart here.

Series [1] relates to human gastric cancer cell strain BGC-823. The experiment in a line: BGC-823 tumor cell growth inhibition, MTT method. Conditions: read-out: half growth inhibition concentration (IC50). The class given is cell-based. For orientation: Formazan colour is commonly taken as a measure of viable cells.
Series [2] deals with human pulmonary cancer cell strain A549. The experiment in a line: A549 tumor cell growth inhibition, MTT method. Particulars: read-out: half growth inhibition concentration (IC50).
The test system of series [3] is HepG2 tumor cell strain. The series can be described thus: HepG2 tumor cell growth inhibition, MTT method. Conditions: for IC50: Homo sapiens, HepG2, 48 h, read-out: half growth inhibition concentration (IC50).
Series [4] can be described thus: HK-2 normal cell growth inhibition (cell toxicity), MTT method. The series is classed as cell-based, human. Conditions: human, HK-2 cells (proximal tubule); HK-2 normal cells, MTT, 48 h; read-out: half growth inhibition concentration (IC50), cell toxicity.
Series [5] in a line: Lipid-water partition coefficient test (n-octanol / biological brine, UV). The method, then: I mg of each of 4-(2,3,5,6-tetramethylpyrazin-1-yl)-4′-demethylepipodophyllotoxin, 4′-demethylepipodophyllotoxin and podophyllotoxin was respectively dissolved into 3 centrifuge tubes of 10 mL each containing 2 mL n-octanol and 2 mL biological brine, the tubes were capped tight, shook thoroughly for 10 min, and subsequently let stand for 20 min. 0.2 mL of the organic- and water phase were respectively pipetted into clean test tubes. Absorbance (A) values of the organic- and water phase were measured using UV method, respectively, using A to calculate the weights of the drugs dissolved in the organic- and water layer, Walcohol and Wwater, respectively. The operations were repeated 3 times, averages were calculated, lipid-water partition coefficients were calculated using Eq. 1:
[formula] where Walcohol and Wwater denote the measured weights of drugs in n-octanol- and water phase, respectively; Valcohol and Vwater denote volumes of n-octanol- and water phase, respectively. 3. Results

The test system of series [6] is human proximal tubule cell strain HK-2. The experiment in a line: HK-2 normal cell growth inhibition (cell toxicity), MTT method. The class given is cell-based. Particulars: HK-2 normal cells, from IC50 values.
Where [7] appears, read: Homo sapiens, BGC-823 cells, MTT, 48 h.

As for `COc1cc([C@@H]2c3cc4c(cc3[C@@H](O)[C@H]3COC(=O)[C@H]23)OCO4)cc(OC)c1O` [4′-demethylepipodophyllotoxin], the IC50 in series [1] (BGC-823 cells, MTT, 48 h) came to 398000 nM; in series [2] (A549 cells, MTT, 48 h) it was 450 nM.
For `COc1cc([C@@H]2c3cc4c(cc3[C@@H](O[C@@H]3O[C@@H]5CO[C@@H](C)O[C@H]5[C@H](O)[C@H]3O)[C@H]3COC(=O)[C@H]23)OCO4)cc(OC)c1O` [etoposide], the IC50 in series [1] (setting [7]) amounted to 14000 nM; in series [2] (Homo sapiens, A549, 48 h) it was 165000 nM; in series [3], 1060 nM.
For orientation: logP means the decadic logarithm of the partition coefficient of the neutral form, usually between octanol and water. A low value points to lower lipophilicity. As to `COc1cc([C@@H]2c3cc4c(cc3[C@H](O)[C@H]3COC(=O)[C@H]23)OCO4)cc(OC)c1OC` [podophyllotoxin], the IC50 in series [1] (Homo sapiens, BGC-823, 48 h) came out at 529000 nM. Further, in series [4], the IC50 at 48 h worked out at 3.5 nM. The lipophilicity (logP) in series [5] came to 0.34.
Turning to `Cc1nc(C)c(C)nc1C` [tetramethylpyrazine], in series [5], the “lipid-water partition coefficient (logP)” value is greater than 5 and the logP was greater than 5.
Regarding `COc1cc([C@@H]2c3cc4c(cc3[C@@H]([n+]3c(C)c(C)nc(C)c3C)[C@H]3COC(=O)[C@H]23)OCO4)cc(OC)c1O` [4-(2,3,5,6-tetramethylpyrazin-1-yl)-4′-demethylepipodophyllotoxin], the IC50 in series [1] (setting [7]) turned out to be 60 nM; in series [2] (Homo sapiens, A549, 48 h) it was 230 nM; in series [3], 290 nM. In addition, in series [4], the IC50 at 48 h stood at 240 nM. Besides, in series [6], the “cell toxicity decreased in comparison with podophyllotoxin” value is given as roughly 66 times. The logP in series [5] was determined as 0.66. Further, the “lipid water partition coefficient increased than 4′-demethylepipodophyllotoxin” value in series [5] (from logP values) was 16%. Moreover, in series [5] (from logP values), the “lipid water partition coefficient increased than podophyllotoxin” value was found to be 94%. Besides, the “inhibition activity raised in comparison with etoposide” value in series [3] (HepG2 cells, from IC50 values) is on record as 2.7 times.
